Source: ChEMBL document CHEMBL4808209 (J Med Chem, 2021)
Calls of active or inactive are those of the source. The calls are words filed in the database; no cut-off is given here.

Legend:
[1] = target: Leukotriene B4 receptor 1 (Homo sapiens, UniProt Q15722); test: Inhibition of LTB4 (unknown origin) at 0.1 to 1 uM; conditions: dose 0.1-1 µM
[2] = target: 5-hydroxytryptamine receptor 2C (Homo sapiens, UniProt P28335); test: Inhibition of 5HT2C receptor (unknown origin) at 0.1 to 1 uM; conditions: dose 0.1-1 µM
[3] = Volume of distribution in Beagle dog at 1 mg/kg, iv measured after 24 hrs; format: ADME, organism-based, Canis lupus familiaris; conditions: in vivo, read-out: Vdss
[4] = Inhibition of Glutamate kainate site receptor (unknown origin) at 0.1 to 1 uM; format: ADME; conditions: human, dose 0.1-1 µM
[5] = target: 5-hydroxytryptamine receptor 5A (Homo sapiens, UniProt P47898); test: Inhibition of human 5HT5A receptor at 0.1 to 1 uM; conditions: dose 0.1-1 µM
CYP2C8 = CYP2C8 (Homo sapiens, UniProt P10632); test: Inhibition of CYP2C8 in human liver microsomes using amodiaquine as substrate substrate in presence of NADPH by LC-MS/MS analysis; format: ADME; conditions: probe amodiaquine
[6] = target: Sodium-dependent serotonin transporter (Homo sapiens, UniProt P31645); test: Inhibition of serotonin transporter (unknown origin) at 0.1 to 1 uM; format: ADME; conditions: dose 0.1-1 µM
[7] = target: Neuropeptide Y receptor type 2 (Homo sapiens, UniProt P49146); test: Inhibition of human NPY2 at 0.1 to 1 uM; conditions: dose 0.1-1 µM
[8] = Inhibition of human PKA at 0.1 to 1 uM; conditions: dose 0.1-1 µM
[9] = target: 5-hydroxytryptamine receptor 1D (Homo sapiens, UniProt P28221); test: Inhibition of 5HT1D receptor (unknown origin) at 0.1 to 1 uM; conditions: dose 0.1-1 µM
[10] = tested on: GABA-A receptor; anion channel; test: Inhibition of GABA A receptor (unknown origin) at 0.1 to 1 uM; format: protein-complex assay; conditions: human, dose 0.1-1 µM
Histamine H3 receptor = Histamine H3 receptor (Homo sapiens, UniProt Q9Y5N1); test: Inhibition of histamine H3 receptor (unknown origin) at 0.1 to 1 uM; conditions: dose 0.1-1 µM
KATO III = test: Antitumor activity against human KATO III stomach cancer cell line xenografted in SCID mouse assessed as tumor growth inhibition at 0.3 mg/kg, po administered once daily for 10 days; format: functional, organism-based; conditions: time 10.0 day
[11] = Toxicity in SCID mouse xenografted with human KATO III stomach cancer cell line assessed as drug tolerance at 0.03 to 1 mg/kg, po administered once daily for 10 days; format: organism-based; conditions: in vivo, 240 h, dose 0.03-1 mg/kg, time 10 day
[12] = tested on: Glutamate [NMDA] receptor; test: Inhibition of Glutamate receptor ionotropic NMDA glycine,[…] site (unknown origin) at 0.1 to 1 uM; format: protein-complex assay; conditions: human, dose 0.1-1 µM
[13] = Volume of distribution at steady state in Sprague-Dawley rat at 2 mg/kg, po or 1 mg/kg, iv administered as cassette dose measured after 24 hrs; format: ADME, organism-based; conditions: in vivo, read-out: Vdss
[14] = Half life in Beagle dog at 1 mg/kg, iv measured after 24 hrs; format: ADME, organism-based, Canis lupus familiaris; conditions: in vivo
[15] = target: Type-1 angiotensin II receptor (Homo sapiens, UniProt P30556); test: Inhibition of human angiotensin 2, AT1 at 0.1 to 1 uM; conditions: dose 0.1-1 µM
[16] = target: Protein kinase C alpha type (Homo sapiens, UniProt P17252); test: Inhibition of human PKCa at 0.1 to 1 uM; conditions: dose 0.1-1 µM
[17] = target: Alpha-2C adrenergic receptor (Homo sapiens, UniProt P18825); test: Inhibition of human adrenergic alpha 2C receptor at 0.1 to 1 uM; conditions: dose 0.1-1 µM
[18] = Volume of distribution at steady state in cynomolgus monkey at 2 mg/kg, po or 0.5 mg/kg, iv administered as cassette dose measured after 24 hrs; format: ADME, organism-based, Macaca fascicularis; conditions: in vivo, read-out: Vdss
[19] = tested on: Neuronal acetylcholine receptor; test: Inhibition of neuronal nicotinic receptor (unknown origin) at 0.1 to 1 uM; format: protein-complex assay; conditions: human, dose 0.1-1 µM
[20] = AUC in cynomolgus monkey at 2 mg/kg, po or 0.5 mg/kg, iv administered as cassette dose measured after 24 hrs; format: ADME, organism-based, Macaca fascicularis; set-up: dose 2 mg/kg, time 24 hrs; conditions: in vivo
[21] = target: 5-hydroxytryptamine receptor 7 (Homo sapiens, UniProt P34969); test: Inhibition of human 5HT7 receptor at 0.1 to 1 uM; conditions: dose 0.1-1 µM
CYP2B6 = CYP2B6 (Homo sapiens, UniProt P20813); test: Inhibition of CYP2B6 in human liver microsomes using bupropion as substrate substrate in presence of NADPH by LC-MS/MS analysis; format: ADME; conditions: probe bupropion
hERG (KCNH2) = hERG (KCNH2) (Homo sapiens, UniProt Q12809); test: Inhibition of human ERG at 5 uM by patch clamp method relative to control
[22] = Protein binding in human plasma assessed as free fraction measured after 2 hrs by LC-MS/MS analysis; format: ADME, cell-free
[23] = AUC in Beagle dog at 2 mg/kg, po measured after 24 hrs; format: ADME, organism-based, Canis lupus familiaris; set-up: route oral, time 24 hrs, dose 2 mg/kg; conditions: in vivo
[24] = Inhibition of sodium channel site 2 (unknown origin) at 0.1 to 1 uM; conditions: human, dose 0.1-1 µM
[25] = target: Voltage-gated inwardly rectifying potassium channel KCNH2 (Homo sapiens, UniProt Q12809); test: Inhibition of human ERG at 0.1 to 1 uM; conditions: dose 0.1-1 µM
[26] = target: 5-hydroxytryptamine receptor 6 (Homo sapiens, UniProt P50406); test: Inhibition of human 5HT6 receptor at 0.1 to 1 uM; conditions: dose 0.1-1 µM
[27] = target: Sigma intracellular receptor 2 (Homo sapiens, UniProt Q5BJF2); test: Inhibition of sigma 2 receptor (unknown origin) at 0.1 to 1 uM; conditions: dose 0.1-1 µM
GABA-B receptor = GABA-B receptor (Homo sapiens, UniProt Q9UBS5+O75899); test: Inhibition of GABA-B receptor (unknown origin) at 0.1 to 1 uM; format: protein-complex assay; conditions: dose 0.1-1 µM
Mu-type opioid receptor = Mu-type opioid receptor (Homo sapiens, UniProt P35372); test: Inhibition of human mu opioid receptor at 0.1 to 1 uM; conditions: dose 0.1-1 µM
[28] = Inhibition of ATP-sensitive potassium channel (unknown origin) at 0.1 to 1 uM; conditions: human, dose 0.1-1 µM
Thromboxane A2 receptor = Thromboxane A2 receptor (Homo sapiens, UniProt P21731); test: Inhibition of human thromboxane A2 at 0.1 to 1 uM; conditions: dose 0.1-1 µM
[29] = Clearance in Beagle dog at 1 mg/kg, iv measured after 24 hrs relative to hepatic blood flow; format: ADME, organism-based, Canis lupus familiaris; conditions: in vivo
D(1A) dopamine receptor = D(1A) dopamine receptor (Homo sapiens, UniProt P21728); test: Inhibition of human dopamine D1 receptor at 0.1 to 1 uM; conditions: dose 0.1-1 µM
[30] = Oral bioavailability in cynomolgus monkey at 2 mg/kg administered as cassette dose measured after 24 hrs; format: ADME, organism-based, Macaca fascicularis; conditions: in vivo
[31] = tested on: Glutamate [NMDA] receptor; test: Inhibition of NMDA receptor (unknown origin) at 0.1 to 1 uM; format: protein-complex assay; conditions: human, dose 0.1-1 µM
D(4) dopamine receptor = D(4) dopamine receptor (Homo sapiens, UniProt P21917); test: Inhibition of human dopamine D4.4 receptor at 0.1 to 1 uM; conditions: dose 0.1-1 µM
[32] = target: Sigma non-opioid intracellular receptor 1 (Homo sapiens, UniProt Q99720); test: Inhibition of sigma 1 receptor (unknown origin) at 0.1 to 1 uM; conditions: dose 0.1-1 µM
Histamine H1 receptor = Histamine H1 receptor (Homo sapiens, UniProt P35367); test: Inhibition of histamine H1 receptor (unknown origin) at 0.1 to 1 uM; conditions: dose 0.1-1 µM
[33] = target: Cysteinyl leukotriene receptor 1 (Homo sapiens, UniProt Q9Y271); test: Inhibition of LTD4 (unknown origin) at 0.1 to 1 uM; conditions: dose 0.1-1 µM

5-hydroxytryptamine receptor 1D, sequence (P28221 whole entry): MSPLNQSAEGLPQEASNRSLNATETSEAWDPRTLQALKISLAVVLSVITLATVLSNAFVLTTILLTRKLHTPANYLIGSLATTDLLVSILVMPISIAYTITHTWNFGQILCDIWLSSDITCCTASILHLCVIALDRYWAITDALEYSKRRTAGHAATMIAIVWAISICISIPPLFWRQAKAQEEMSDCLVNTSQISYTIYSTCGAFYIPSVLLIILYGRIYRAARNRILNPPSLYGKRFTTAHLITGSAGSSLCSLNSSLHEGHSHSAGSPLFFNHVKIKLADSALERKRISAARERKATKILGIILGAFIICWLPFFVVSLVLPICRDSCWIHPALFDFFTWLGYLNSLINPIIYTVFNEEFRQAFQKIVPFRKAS
Mu-type opioid receptor, sequence (P35372 whole entry): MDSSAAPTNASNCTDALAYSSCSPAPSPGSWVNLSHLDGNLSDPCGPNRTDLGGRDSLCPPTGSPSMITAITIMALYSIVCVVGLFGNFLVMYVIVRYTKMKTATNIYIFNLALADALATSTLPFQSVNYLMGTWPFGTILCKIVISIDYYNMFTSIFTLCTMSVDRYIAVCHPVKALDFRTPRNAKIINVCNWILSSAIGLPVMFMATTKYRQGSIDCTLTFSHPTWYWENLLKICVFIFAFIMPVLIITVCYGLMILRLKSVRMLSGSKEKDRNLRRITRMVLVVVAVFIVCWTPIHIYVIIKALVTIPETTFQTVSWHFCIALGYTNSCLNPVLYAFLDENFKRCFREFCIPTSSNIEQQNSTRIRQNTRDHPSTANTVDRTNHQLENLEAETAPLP
Voltage-gated inwardly rectifying potassium channel KCNH2, sequence (Q12809 whole entry): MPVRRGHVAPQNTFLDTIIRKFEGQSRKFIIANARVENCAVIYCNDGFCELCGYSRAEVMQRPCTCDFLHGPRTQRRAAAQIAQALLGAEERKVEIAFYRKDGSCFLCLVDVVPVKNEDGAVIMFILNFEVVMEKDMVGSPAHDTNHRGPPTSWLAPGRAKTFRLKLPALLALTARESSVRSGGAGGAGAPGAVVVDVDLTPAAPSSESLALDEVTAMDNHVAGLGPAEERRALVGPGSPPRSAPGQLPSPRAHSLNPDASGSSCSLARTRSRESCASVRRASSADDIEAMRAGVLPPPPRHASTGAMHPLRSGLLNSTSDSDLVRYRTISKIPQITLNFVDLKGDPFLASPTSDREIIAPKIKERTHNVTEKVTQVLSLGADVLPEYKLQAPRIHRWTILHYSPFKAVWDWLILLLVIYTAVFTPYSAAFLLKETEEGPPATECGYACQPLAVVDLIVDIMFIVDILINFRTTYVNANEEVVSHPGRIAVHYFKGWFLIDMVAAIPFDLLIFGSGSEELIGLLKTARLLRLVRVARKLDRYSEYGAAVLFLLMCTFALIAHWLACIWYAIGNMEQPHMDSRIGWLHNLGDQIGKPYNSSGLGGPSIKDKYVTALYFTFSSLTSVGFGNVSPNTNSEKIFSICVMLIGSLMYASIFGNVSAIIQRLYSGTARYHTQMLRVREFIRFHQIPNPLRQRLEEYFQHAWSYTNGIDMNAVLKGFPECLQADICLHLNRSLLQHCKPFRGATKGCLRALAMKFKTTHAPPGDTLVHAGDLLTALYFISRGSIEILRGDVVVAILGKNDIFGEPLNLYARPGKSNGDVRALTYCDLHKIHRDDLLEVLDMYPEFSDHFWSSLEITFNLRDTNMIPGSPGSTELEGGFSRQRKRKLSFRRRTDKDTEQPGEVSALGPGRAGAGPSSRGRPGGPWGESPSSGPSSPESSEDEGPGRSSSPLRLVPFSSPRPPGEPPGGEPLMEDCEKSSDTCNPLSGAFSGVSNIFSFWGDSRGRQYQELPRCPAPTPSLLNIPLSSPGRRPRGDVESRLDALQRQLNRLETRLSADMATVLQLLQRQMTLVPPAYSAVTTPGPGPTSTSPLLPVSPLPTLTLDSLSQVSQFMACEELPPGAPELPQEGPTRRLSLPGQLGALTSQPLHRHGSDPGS
hERG (KCNH2), sequence (Q12809 whole entry): as above
GABA-B receptor, sequence (Q9UBS5 whole entry): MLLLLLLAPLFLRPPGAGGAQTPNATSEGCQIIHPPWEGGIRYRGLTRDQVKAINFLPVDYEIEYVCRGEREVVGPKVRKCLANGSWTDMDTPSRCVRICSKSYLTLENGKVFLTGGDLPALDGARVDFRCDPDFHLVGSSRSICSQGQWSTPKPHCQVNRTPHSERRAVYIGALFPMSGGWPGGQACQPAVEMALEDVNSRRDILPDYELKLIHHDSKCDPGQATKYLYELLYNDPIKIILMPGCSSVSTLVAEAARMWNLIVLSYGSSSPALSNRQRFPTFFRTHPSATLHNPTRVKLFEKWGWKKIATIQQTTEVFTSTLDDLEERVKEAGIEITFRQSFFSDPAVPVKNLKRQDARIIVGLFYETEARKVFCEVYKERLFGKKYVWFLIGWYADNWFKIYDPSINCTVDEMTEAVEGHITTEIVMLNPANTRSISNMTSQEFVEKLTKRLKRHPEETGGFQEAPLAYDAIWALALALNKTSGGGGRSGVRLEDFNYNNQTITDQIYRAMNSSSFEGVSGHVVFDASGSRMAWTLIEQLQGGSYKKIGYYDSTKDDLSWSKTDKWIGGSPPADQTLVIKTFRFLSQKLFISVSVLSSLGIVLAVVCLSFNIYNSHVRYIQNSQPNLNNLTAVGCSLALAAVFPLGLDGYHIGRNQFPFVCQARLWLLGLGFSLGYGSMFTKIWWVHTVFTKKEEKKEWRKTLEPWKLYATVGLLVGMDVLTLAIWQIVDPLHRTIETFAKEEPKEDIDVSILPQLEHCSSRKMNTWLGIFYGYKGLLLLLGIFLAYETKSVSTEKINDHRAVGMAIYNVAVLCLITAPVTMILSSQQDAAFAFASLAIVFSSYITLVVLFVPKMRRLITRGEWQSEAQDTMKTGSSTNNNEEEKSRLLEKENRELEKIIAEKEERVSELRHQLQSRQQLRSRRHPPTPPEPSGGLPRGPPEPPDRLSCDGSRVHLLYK
GABA-B receptor, sequence (O75899 whole entry): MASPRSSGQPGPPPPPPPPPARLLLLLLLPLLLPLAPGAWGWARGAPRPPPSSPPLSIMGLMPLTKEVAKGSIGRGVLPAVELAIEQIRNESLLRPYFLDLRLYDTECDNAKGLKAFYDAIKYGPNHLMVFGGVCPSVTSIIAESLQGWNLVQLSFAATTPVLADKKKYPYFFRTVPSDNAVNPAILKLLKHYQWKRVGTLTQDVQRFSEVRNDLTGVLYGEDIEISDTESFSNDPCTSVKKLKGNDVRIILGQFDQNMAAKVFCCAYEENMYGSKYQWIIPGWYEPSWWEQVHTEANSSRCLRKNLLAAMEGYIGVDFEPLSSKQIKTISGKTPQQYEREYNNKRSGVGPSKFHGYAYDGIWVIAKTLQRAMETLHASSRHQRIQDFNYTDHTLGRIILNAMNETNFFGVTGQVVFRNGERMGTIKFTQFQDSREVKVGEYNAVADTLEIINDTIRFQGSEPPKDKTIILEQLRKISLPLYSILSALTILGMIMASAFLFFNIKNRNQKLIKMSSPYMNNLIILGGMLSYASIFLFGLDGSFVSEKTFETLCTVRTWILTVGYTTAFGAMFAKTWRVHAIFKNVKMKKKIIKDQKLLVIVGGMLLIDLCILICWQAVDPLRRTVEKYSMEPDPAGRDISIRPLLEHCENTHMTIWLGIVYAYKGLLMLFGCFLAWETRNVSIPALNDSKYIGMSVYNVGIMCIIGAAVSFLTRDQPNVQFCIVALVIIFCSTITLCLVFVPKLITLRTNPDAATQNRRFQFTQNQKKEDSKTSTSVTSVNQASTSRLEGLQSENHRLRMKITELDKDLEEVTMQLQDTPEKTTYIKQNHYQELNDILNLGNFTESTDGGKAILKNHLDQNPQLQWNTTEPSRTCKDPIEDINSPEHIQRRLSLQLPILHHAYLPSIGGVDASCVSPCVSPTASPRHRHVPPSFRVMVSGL

CCN1C(=O)N(c2c(F)c(OC)cc(OC)c2F)Cc2cnc3[nH]c(CN4CCOCC4)cc3c21 [PEMIGATINIB]
inhibition (INH) [1]: Not Active | inhibition (INH) [2]: Not Active | Vd [3]: 3.49 L/kg | inhibition (INH) [4]: Not Active | inhibition (INH) [5]: Not Active | IC50 (CYP2C8): > 25 µM | inhibition (INH) [6]: Not Active | inhibition (INH) [7]: Not Active | inhibition (INH) [8]: Not Active | inhibition (INH) [9]: Not Active | inhibition (INH) [10]: Not Active | inhibition (INH) (Histamine H3 receptor): Not Active | TGI (KATO III): Active | Activity [11]: Non-Toxic | inhibition (INH) [12]: Not Active | Vd [13]: 1.85 L/kg | half-life [14]: 15.7 h | inhibition (INH) [15]: Not Active | inhibition (INH) [16]: Not Active | inhibition (INH) [17]: Not Active | Vd [18]: 0.58 L/kg | inhibition (INH) [19]: Not Active | AUC at 24 h [20]: 6.19 µM·h | inhibition (INH) [21]: Not Active | IC50 (CYP2B6): > 25 µM | inhibition at 5 µM (hERG (KCNH2)): 9% | fraction unbound at 2 h [22]: 0.11 | AUC at 24 h [23]: 22.1 µM·h | inhibition (INH) [24]: Not Active | inhibition (INH) [25]: Not Active | inhibition (INH) [26]: Not Active | inhibition (INH) [27]: Not Active | inhibition (INH) (GABA-B receptor): Not Active | inhibition (INH) (Mu-type opioid receptor): Not Active | inhibition (INH) [28]: Not Active | inhibition (INH) (Thromboxane A2 receptor): Not Active | CL [29]: 10% | inhibition (INH) (D(1A) dopamine receptor): Not Active | bioavailability [30]: 29% | inhibition (INH) [31]: Not Active | inhibition (INH) (D(4) dopamine receptor): Not Active | inhibition (INH) [32]: Not Active | inhibition (INH) (Histamine H1 receptor): Not Active | inhibition (INH) [33]: Not Active
